Experimental data taken from patent US20250243189A1, “HERBICIDAL IMIDAZOLE-CONTAINING COMPOUNDS” (SYNGENTA CROP PROTECTION AG, priority 2022, published 2025).

Columns and labels:
Format in all cases: in vivo
Conditions in all cases: 250 g/ha, evaluated after 13 days, five-point scale
[1] = test system: Echinochloa crus-galli (ECHCG); test: Post-emergence herbicidal glasshouse test
Outline: (§1)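 Five-point damage score (5=81-100%, 4=61-80%, 3=41-60%, 2=21-40%, 1=0-20%) read 13 days post-spray. Treatment: 250 g/ha unless otherwise stated, aqueous spray from acetone/water (50:50) + 0.5% Tween 20, applied 1 day (pre) or 8 days (post) after sowing.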

[2] = test system: Amaranthus retoflexus (AMARE); test: Post-emergence herbicidal glasshouse test
Outline: as §1

[3] = test system: AMAPA; test: Post-emergence herbicidal glasshouse test
[4] = test system: Setaria faberi (SETFA); test: Post-emergence herbicidal glasshouse test
Outline: as §1

[5] = test system: IPOHE; test: Post-emergence herbicidal glasshouse test
Outline: as §1

[6] = test system: Echinochloa crus-galli (ECHCG); test: Pre-emergence herbicidal glasshouse test
Outline: as §1

[7] = test system: Amaranthus retoflexus (AMARE); test: Pre-emergence herbicidal glasshouse test
Outline: as §1

[8] = test system: AMAPA; test: Pre-emergence herbicidal glasshouse test
[9] = test system: Setaria faberi (SETFA); test: Pre-emergence herbicidal glasshouse test
Outline: as §1

[10] = test system: IPOHE; test: Pre-emergence herbicidal glasshouse test
Outline: as §1

SMILES | percentage damage caused to the plant, ECHCG [1] | percentage damage caused to the plant, AMARE [2] | percentage damage caused to the plant, AMAPA [3] | percentage damage caused to the plant, SETFA [4] | percentage damage caused to the plant, IPOHE [5] | percentage damage caused to the plant, ECHCG [6] | percentage damage caused to the plant, AMARE [7] | percentage damage caused to the plant, AMAPA [8] | percentage damage caused to the plant, SETFA [9] | percentage damage caused to the plant, IPOHE [10]
Cn1ccnc1-c1nc(C(F)(F)F)cn1Cc1ncc(Cl)cn1 [Compound 1.006] | 1 (1=0-20%) | 1 (1=0-20%) | 1 (1=0-20%) | 1 (1=0-20%) | 1 (1=0-20%) | 1 (1=0-20%) | 1 (1=0-20%) | 1 (1=0-20%) | 1 (1=0-20%) | 1 (1=0-20%)
FC(F)(F)c1cn(Cc2ncc(Cl)cn2)c(-c2cccs2)n1 [Compound 1.034] | 2 (2=21-40%) | 4 (4=61-80%) | 4 (4=61-80%) | 2 (2=21-40%) | 4 (4=61-80%) | 2 (2=21-40%) | 5 (5=81-100%) | 5 (5=81-100%) | 2 (2=21-40%) | 2 (2=21-40%)
Cn1nccc1-c1nc(C(F)(F)F)cn1Cc1ncc(Cl)cn1 [Compound 1.005] | 5 (5=81-100%) | 5 (5=81-100%) | 5 (5=81-100%) | 5 (5=81-100%) | 4 (4=61-80%) | 5 (5=81-100%) | 5 (5=81-100%) | 5 (5=81-100%) | 5 (5=81-100%) | 5 (5=81-100%)
FC(F)(F)c1cn(Cc2ncc(Cl)cn2)c(-c2ccco2)n1 [Compound 1.016] | 1 (1=0-20%) | 1 (1=0-20%) | 1 (1=0-20%) | 1 (1=0-20%) | 1 (1=0-20%) | 1 (1=0-20%) | 1 (1=0-20%) | 1 (1=0-20%) | 1 (1=0-20%) | 1 (1=0-20%)
Cc1sccc1-c1nc(C(F)(F)F)cn1Cc1ncc(Cl)cn1 [Compound 1.035] | 5 (5=81-100%) | 5 (5=81-100%) | 4 (4=61-80%) | 5 (5=81-100%) | 4 (4=61-80%) | 5 (5=81-100%) | 5 (5=81-100%) | 5 (5=81-100%) | 5 (5=81-100%) | 4 (4=61-80%)
Cc1csc(-c2nc(C(F)(F)F)cn2Cc2ncc(Cl)cn2)c1 [Compound 1.029] | 4 (4=61-80%) | 5 (5=81-100%) | 5 (5=81-100%) | 4 (4=61-80%) | 2 (2=21-40%) | 5 (5=81-100%) | 5 (5=81-100%) | 5 (5=81-100%) | 5 (5=81-100%) | 1 (1=0-20%)
Fc1cnn(-c2nc(C(F)(F)F)cn2Cc2ncc(Cl)cn2)c1 [Compound 1.067] | 1 (1=0-20%) | 4 (4=61-80%) | 3 (3=41-60%) | 1 (1=0-20%) | 2 (2=21-40%) | 1 (1=0-20%) | 5 (5=81-100%) | 4 (4=61-80%) | 1 (1=0-20%) | 2 (2=21-40%)
Cc1cc(-c2nc(C(F)(F)F)cn2Cc2ncc(Cl)cn2)n(C)n1 [Compound 1.024] | 5 (5=81-100%) | 5 (5=81-100%) | 5 (5=81-100%) | 5 (5=81-100%) | 5 (5=81-100%) | 5 (5=81-100%) | 5 (5=81-100%) | 5 (5=81-100%) | 5 (5=81-100%) | 5 (5=81-100%)
FC(F)(F)c1cn(Cc2ncc(Cl)cn2)c(-c2ccsc2)n1 [Compound 1.030] | 4 (4=61-80%) | 5 (5=81-100%) | 5 (5=81-100%) | 5 (5=81-100%) | 4 (4=61-80%) | 5 (5=81-100%) | 5 (5=81-100%) | 5 (5=81-100%) | 5 (5=81-100%) | 4 (4=61-80%)
FC(F)(F)c1cn(Cc2ncc(Cl)cn2)c(-n2ccc(Cl)n2)n1 [Compound 1.066] | 1 (1=0-20%) | 4 (4=61-80%) | 3 (3=41-60%) | 1 (1=0-20%) | 4 (4=61-80%) | 1 (1=0-20%) | 5 (5=81-100%) | 5 (5=81-100%) | 2 (2=21-40%) | 4 (4=61-80%)
FC(F)(F)c1cn(Cc2ncc(Cl)cn2)c(-c2cnc(Cl)s2)n1 [Compound 1.008] | 5 (5=81-100%) | 5 (5=81-100%) | 5 (5=81-100%) | 5 (5=81-100%) | 4 (4=61-80%) | 5 (5=81-100%) | 5 (5=81-100%) | 5 (5=81-100%) | 5 (5=81-100%) | 5 (5=81-100%)
